Measured values reported in ChEMBL document CHEMBL1201862, “PubChem BioAssay data set” (2004).
Calls of active or inactive are those of the source.

How the values were obtained:
[1] = biological target: T1, Nucleotide-binding oligomerization domain-containing protein 1 (Homo sapiens, UniProt Q9Y239); assay: NOD1 signaling inhibitors, SAR follow-up, revised (AID 2333); type: functional
T1 sequence (Q9Y239 whole entry): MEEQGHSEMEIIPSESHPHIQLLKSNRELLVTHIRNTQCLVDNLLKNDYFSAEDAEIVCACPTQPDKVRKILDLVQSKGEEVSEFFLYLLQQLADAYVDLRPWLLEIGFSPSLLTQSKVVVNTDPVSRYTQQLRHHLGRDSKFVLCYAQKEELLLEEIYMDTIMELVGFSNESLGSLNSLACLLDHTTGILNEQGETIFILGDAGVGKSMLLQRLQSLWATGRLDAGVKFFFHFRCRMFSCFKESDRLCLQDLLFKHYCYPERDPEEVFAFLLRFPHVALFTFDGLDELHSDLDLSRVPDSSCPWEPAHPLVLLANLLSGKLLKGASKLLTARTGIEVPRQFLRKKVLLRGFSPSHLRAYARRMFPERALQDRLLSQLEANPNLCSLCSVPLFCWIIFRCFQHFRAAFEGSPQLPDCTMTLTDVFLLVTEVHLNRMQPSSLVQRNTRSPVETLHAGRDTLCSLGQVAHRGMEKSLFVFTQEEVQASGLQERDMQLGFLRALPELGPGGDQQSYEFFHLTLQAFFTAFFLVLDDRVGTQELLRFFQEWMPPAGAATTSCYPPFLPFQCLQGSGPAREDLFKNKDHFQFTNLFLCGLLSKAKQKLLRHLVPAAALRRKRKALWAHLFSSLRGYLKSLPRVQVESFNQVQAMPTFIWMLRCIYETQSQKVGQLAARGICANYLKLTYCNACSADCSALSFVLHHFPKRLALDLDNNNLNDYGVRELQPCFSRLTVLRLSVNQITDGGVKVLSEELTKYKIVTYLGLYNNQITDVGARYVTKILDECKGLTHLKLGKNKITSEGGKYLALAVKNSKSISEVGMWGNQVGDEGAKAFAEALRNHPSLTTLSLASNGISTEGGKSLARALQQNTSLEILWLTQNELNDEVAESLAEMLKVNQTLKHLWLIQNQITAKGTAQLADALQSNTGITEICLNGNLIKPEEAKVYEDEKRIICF

[2] = biological target: Nucleotide-binding oligomerization domain-containing protein 2 (Homo sapiens, UniProt Q9HC29); assay: PubChem AID 2334; type: functional
[3] = Luminescence Cell-Based Dose Retest to Confirm Inhibitors of Cancer Stem Cells. [Related pubchem assays (depositor defined):AID2717, AID2721]; type: functional; settings: Homo sapiens
Tumor necrosis factor = Tumor necrosis factor (Homo sapiens, UniProt P01375); assay: TNFa-triggered NF-kB activation inhibitors, SAR follow-up, cell-based, revised (AID 2337); type: functional
HEK293 = assay: cells; settings: Homo sapiens;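 note: cells exposed to compound for 14 hours overnight before viability readout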
Mu-type opioid receptor = Mu-type opioid receptor (Homo sapiens, UniProt P35372); assay: (§1) Counterscreen for agonists of heterodimerization of the mu 1 (OPRM1) and delta 1 (OPRD1) opioid receptors: Luminescence-based cell-based high throughput dose response assay to identify agonists of OPRM1 homodimerization.; type: functional
[4] = biological target: 5-hydroxytryptamine receptor 5A (Homo sapiens, UniProt P47898); assay: Counterscreen for agonists of OPRM1-OPRD1 heterodimerization: luminescence-based cell-based high throughput dose response assay to identify agonists of 5-hydroxytryptamine (serotonin) 5A receptor (HTR5A). [Related pubchem assays (depositor defined):AID504326, AID504355, AID504692, AID504904, AID504905]; type: functional
[5] = biological target: Delta-type opioid receptor (Homo sapiens, UniProt P41143); assay: as §1, with “of OPRD1” for “of OPRM1”, “homodimerization. [Related pubchem assays (depositor defined):AID504326, AID504355, AID504692, AID504904, AID504905]” for “homodimerization.”; type: functional
Streptokinase A = biological target: T2, Streptokinase A (Streptococcus pyogenes serotype M1, UniProt P10520); assay: S. pyogenes streptokinase expression inhibitors, potency, dose response, plasminogen activation absorbance, OD405 (AID 1914); type: functional, Streptococcus pyogenes M1 GAS;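 note: secreted streptokinase activity via plasminogen activation per viability signal from cell pellet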
T2 sequence (P10520 whole entry): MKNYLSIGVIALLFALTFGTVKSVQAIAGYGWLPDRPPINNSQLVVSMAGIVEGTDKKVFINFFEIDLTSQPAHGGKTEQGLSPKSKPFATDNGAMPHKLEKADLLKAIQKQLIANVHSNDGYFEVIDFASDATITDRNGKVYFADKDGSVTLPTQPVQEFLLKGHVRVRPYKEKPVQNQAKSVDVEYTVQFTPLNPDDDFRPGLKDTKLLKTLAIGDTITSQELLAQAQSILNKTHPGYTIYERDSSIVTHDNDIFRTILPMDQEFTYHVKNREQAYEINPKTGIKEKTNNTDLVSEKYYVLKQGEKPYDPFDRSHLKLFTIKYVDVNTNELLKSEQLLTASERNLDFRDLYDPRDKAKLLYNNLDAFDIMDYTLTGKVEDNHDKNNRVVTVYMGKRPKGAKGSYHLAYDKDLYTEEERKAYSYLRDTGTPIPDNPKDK

[6] = Shn3 3'UTR reporter inhibitors, dose response, cell-based, Clone20 osteoblasts, firefly luciferase, cherry-picked (AID 624132); type: functional;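 note: firefly luciferase luminescence from reporter carrying the Shn3 3'UTR in osteoblasts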
Streptococcus = assay: Group A Streptococcus viability loss, dose response, counter-screen for streptokinase expression inhibitor project, luminescence, BacTiterGlo (AID 1915); type: functional, organism-based;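 note: potency for reduction of bacterial viability or growth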
Vero [7] = assay: cells; type: functional, cell-based; settings: Chlorocebus sabaeus
[8] = microbe, parasite or virus in culture; type: functional; settings: Mycobacterium tuberculosis
[9] = control 3'UTR Renilla luciferase suppression, dose response, counter-screen for Shn3 inhibitor project, cell-based, Clone20-Shn3RL, cherry-picked (AID 624133); type: functional
[10] = tested on: Streptococcus sp. 'group A'; assay: growth inhibition of control SK(-) GAS strain, dose response, counter-screen for streptokinase expression inhibitor project, luminescence, kanamycin, BacTiterGlo, confirmation (AID 1900); type: functional, organism-based
Vero [11] = assay: cells; type: functional; settings: Chlorocebus sabaeus

Chain of Delta-type opioid receptor (P41143 whole entry): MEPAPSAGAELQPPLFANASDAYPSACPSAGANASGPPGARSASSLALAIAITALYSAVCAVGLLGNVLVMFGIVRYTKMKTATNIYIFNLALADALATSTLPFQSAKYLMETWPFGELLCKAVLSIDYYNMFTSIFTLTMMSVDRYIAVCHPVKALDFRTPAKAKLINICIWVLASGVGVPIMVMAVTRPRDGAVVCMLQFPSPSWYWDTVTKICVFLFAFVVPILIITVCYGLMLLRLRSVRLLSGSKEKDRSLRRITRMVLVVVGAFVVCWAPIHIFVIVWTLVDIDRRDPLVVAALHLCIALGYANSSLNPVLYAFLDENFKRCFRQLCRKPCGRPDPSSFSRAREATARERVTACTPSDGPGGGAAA
Chain of Tumor necrosis factor (P01375 whole entry): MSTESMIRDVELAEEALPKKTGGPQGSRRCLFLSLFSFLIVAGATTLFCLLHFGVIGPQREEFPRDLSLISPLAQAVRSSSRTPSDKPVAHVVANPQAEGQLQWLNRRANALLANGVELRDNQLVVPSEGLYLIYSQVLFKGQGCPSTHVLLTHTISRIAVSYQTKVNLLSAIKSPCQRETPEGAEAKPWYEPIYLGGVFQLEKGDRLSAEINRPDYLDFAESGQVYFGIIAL
Chain of Nucleotide-binding oligomerization domain-containing protein 2 (Q9HC29 whole entry, the tested form may be a part): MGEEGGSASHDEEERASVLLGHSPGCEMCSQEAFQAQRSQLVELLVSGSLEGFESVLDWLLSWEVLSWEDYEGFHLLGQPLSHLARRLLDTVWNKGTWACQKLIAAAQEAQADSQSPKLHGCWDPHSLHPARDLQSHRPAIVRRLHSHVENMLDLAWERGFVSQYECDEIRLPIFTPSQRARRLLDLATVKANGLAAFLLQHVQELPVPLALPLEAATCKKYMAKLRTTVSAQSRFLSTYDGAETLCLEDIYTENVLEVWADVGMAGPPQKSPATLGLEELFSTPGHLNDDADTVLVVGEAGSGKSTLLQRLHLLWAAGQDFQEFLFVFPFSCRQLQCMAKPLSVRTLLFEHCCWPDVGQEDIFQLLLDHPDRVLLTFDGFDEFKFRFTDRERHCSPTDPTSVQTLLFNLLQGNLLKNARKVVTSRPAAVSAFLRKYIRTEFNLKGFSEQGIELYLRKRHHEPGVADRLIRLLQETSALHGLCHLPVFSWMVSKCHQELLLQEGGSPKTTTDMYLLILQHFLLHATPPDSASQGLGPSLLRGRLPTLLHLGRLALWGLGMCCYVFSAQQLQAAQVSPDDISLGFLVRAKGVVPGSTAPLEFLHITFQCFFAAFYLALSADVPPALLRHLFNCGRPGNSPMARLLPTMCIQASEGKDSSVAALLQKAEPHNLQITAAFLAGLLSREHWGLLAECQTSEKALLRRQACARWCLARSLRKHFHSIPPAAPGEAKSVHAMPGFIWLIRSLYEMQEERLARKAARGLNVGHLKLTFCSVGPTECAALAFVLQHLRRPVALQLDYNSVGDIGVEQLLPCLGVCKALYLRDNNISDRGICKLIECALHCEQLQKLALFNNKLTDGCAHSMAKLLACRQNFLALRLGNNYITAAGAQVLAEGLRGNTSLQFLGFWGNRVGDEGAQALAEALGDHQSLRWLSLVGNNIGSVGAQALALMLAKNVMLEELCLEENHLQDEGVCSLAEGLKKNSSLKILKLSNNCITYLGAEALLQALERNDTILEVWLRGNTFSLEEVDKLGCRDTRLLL
Chain of Mu-type opioid receptor (P35372 whole entry): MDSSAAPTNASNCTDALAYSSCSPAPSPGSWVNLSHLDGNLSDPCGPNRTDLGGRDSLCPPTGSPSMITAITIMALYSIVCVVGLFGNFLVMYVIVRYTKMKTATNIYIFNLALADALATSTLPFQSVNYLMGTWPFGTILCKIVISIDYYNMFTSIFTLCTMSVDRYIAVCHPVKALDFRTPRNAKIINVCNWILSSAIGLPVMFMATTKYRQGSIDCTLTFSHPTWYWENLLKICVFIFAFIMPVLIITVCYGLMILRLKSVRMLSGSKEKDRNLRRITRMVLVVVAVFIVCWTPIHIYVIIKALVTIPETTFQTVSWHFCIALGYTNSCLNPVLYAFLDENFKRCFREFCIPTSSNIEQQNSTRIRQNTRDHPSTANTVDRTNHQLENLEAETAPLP
Chain of 5-hydroxytryptamine receptor 5A (P47898 whole entry): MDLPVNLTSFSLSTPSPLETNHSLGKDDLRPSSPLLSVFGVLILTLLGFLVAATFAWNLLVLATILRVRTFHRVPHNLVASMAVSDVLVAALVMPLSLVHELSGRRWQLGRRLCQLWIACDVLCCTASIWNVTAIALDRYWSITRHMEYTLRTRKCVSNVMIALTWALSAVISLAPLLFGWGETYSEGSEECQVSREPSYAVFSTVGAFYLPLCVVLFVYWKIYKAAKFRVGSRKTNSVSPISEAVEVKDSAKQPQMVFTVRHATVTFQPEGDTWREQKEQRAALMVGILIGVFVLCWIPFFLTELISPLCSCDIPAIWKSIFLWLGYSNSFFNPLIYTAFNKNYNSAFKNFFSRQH

COC(=O)c1c(NC(=O)c2ccccc2)sc2c1CC(C)(C)OC2
inactive: IC50 [1] > 20 µM | IC50 [2] > 20 µM | IC50 (Tumor necrosis factor) > 20 µM | IC50 (HEK293) > 20 µM
active: AC50 [3] 9.23 µM

CSCCCNC(=O)c1ccc(OC2CCN(CCc3ccccc3)CC2)cc1
inactive: EC50 (Mu-type opioid receptor) > 92.5 µM | EC50 [4] > 92.5 µM | EC50 [5] > 92.5 µM

O=C(CSc1ccccn1)Nc1nonc1[N+](=O)[O-]
> 150 µM (not active): EC50 (Streptokinase A) | EC50 (Streptococcus)
active: AC50 [6] 5 µM | IC50 (Vero [7]) > 25 µM | CC50 [8] 24.5 µM | AC50 [9] 12.5 µM | EC50 [10] 5.77 µM | CC50 (Vero [11]) 20.7 µM
